Tests used:
Assay type in all cases: functional
Sordaria fimicola = test: Antifungal activity against Sordaria fimicola NRRL 6459 assessed as reduction in radical growth at 200 ug/disk by centerpoint inoculation disk assay; parameters: scale not given: the % may be the effect or the level left
Bacillus subtilis = test: […] activity against Bacillus subtilis ATCC 6051 at 200 ug/disk by standard disk assay; details: read-out: IZ
Staphylococcus aureus = test: […] activity against Staphylococcus aureus ATCC 29213 at 200 ug/disk by standard disk assay; details: read-out: IZ
Ascobolus = test: Antifungal activity against Ascobolus furfuraceus NRRL 6460 assessed as reduction in radical growth at 200 ug/disk by centerpoint inoculation disk assay; parameters: scale not given: the % may be the effect or the level left

| SMILES | Activity (Sordaria fimicola) | zone of inhibition at 200 µg/disc (Bacillus subtilis) | zone of inhibition at 200 µg/disc (Staphylococcus aureus) | Activity (Ascobolus) |
| --- | --- | --- | --- | --- |
| COC(=O)c1cc(OC)cc(O)c1OC(=O)c1c(O)cc2cc(C)oc(=O)c2c1O [CERCOPHORIN C] | 51% |  |  |  |
| COC(=O)c1cc(OC)cc(O)c1C(=O)c1c(O)cc2cc(C)oc(=O)c2c1O [CERCOPHORIN A] | 34% | 26 mm | 16 mm |  |
| COC(=O)c1cc(OC)cc(OC(=O)c2c(O)cc3cc(C)oc(=O)c3c2O)c1O [CERCOPHORIN B] | 10% |  |  |  |
| Cc1oc(=O)c2c(O)cc(O)c(C)c2c1C [DECARBOXYCITRINONE] | 100% |  |  | 100% |
